Here are results for one compound from patent US12150940B2, “WASp-protecting small molecules, compositions, methods and uses thereof in the treatment of innate and acquired immune-related disorders or conditions” (BAR ILAN UNIVERSITY, priority 2016, dated 2024).

In test [1] the target is T1, WASp (Homo sapiens, UniProt P42768).
T1 construct: endogenous in cells; host or cells: primary human platelets from healthy donors
T1 sequence (P42768 1-502): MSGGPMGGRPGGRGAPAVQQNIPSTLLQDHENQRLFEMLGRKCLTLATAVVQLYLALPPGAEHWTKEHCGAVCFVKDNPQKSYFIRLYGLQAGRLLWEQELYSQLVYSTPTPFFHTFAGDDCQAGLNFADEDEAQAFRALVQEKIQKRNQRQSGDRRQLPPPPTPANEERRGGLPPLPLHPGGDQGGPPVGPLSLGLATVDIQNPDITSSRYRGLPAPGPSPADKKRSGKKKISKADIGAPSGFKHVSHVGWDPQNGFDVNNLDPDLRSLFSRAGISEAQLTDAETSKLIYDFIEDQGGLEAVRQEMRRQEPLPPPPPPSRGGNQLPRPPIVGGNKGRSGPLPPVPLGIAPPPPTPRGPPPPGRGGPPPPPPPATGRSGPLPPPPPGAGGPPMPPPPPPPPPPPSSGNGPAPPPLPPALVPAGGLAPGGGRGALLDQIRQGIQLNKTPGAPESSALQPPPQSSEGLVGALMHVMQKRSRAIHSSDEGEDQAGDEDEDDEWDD
As to the kind of experiment: WASp expression in anti-CD3/anti-CD28-activated PBMCs (western blot). Type of test: cell-based. The procedure: FIG. 4C-4D. Freshly-isolated PBMCs were incubated with SMC #6 or control at 37° C. for the indicated times. The PBMCs were either co-stimulated (+) with anti-CD3 and anti-CD28 or left unstimulated (−), followed by lysis. Lysates were analyzed for WASp expression by immunoblotting with anti-WASp and anti-GAPDH as loading control (FIG. 4C). Relative WASp expression was determined by densitometric analysis and is presented in a summarizing graph of FIG. 4D. Error bars represent the SE from the mean. P values were calculated versus DMSO-treated control cells by two-tailed Student's t-test, and is indicated therein. Data are representative of three independent experiments.
Jurkat T-cells (FIG. 5A) or Freshly-isolated PBMCs (FIG. 5B) were incubated for 15 min at 37° C. with either control or the indicated WASp-binding SMCs, followed by co-stimulation with anti-CD3 and anti-CD28 and lysis. Freshly-isolated platelets were incubated for 15 min at 37° C. with either control or the indicated WASp-binding SMCs, followed by stimulation with TRAP-6 (10 μM) and lysis (FIG. 5C). Lysates were analyzed for WASp expression by immunoblotting with anti-WASp and anti-GAPDH as loading control. Western blot is representative of three independent experiments. […] Relative WASp expression was determined by densitometric analysis. Error bars represent the SE from the mean. […]
A general note: Immunoblotting shows a protein as a band on a membrane.

Test [2] deals with Jurkat T cells. As to the kind of experiment: Lymphocyte activation in Jurkat T cells (CD69 and activated LFA-1, flow cytometry). The format is cell-based, human. The following applies: Jurkat T cells stimulated with PMA and Ionomycin, vs control. The procedure: FIGS. 9A and 9B, show 1×10^6 Jurkat T cells/ml, stimulated with PMA and Ionomycin, were treated with WASp-binding SMC #6 or control. After incubation, the cells were stained with anti-activated LFA-1 antibody (KIM127), followed by staining with Alexa488-Fluor goat anti-mouse IgG1 secondary antibody (FIG. 9B). Cells were co-stained with PE-Cy5™-conjugated mouse anti-human CD69 and lymphocyte activation was measured by flow-cytometry as described in the Experimental procedures (FIG. 9A). Histograms of negative control versus SMC #6 are presented.
PBMCs or Jurkat cells (about 3×10^5 cells) were incubated for 4 h, at 37° C. with 50 ng/ml PMA and 250 ng/ml lonomycin, or 40 ng/ml PMA and 6 μM Ionomycin, respectively, or left untreated. After incubation, the cells were collected and stained with 1 μg/ml anti-active human LFA-1 antibody (purified from KIM127 hybridoma sup, ATCC Cat #: CRL-2838, Sigma) for 30 min in 37° C., followed by staining with Alexa488-Fluor goat anti-mouse IgG1 secondary antibody (Molecular Probes, Cat #: A-21121), 30 min on ice. Cells were then co-stained with PE-Cy5™-conjugated mouse anti-human CD69 (BD Pharmingen, Cat #: 555532) to measure lymphocyte activation.
Once activated, lymphocytes proliferate to effectively amplify the immune response. […]

On to `CC(=O)N[C@H]1C[C@@H](c2ccc3c(c2)nnn3C)O[C@@H](c2ccc(Cl)cc2)C1` [SMC #6, N-[(2R,4R,6S)-2-(4-chlorophenyl)-6-(1-methylbenzotriazol-5-yl)oxan-4-yl]acetamide], for which the “WASp degradation in PBMCs” value in test [1] (after 15 min of incubation) was “attenuated WASp degradation”; in test [1] (after 2 h of incubation, compared with 15 min), “more pronounced”. For the same compound, the “lymphocyte activation (CD69, activated LFA-1)” value in test [2] is listed as “upregulation”.
